What was measured:
Assay in all cases: Kinase selectivity, DiscoverX scanMAX Kinase assay panel (% control)
Type in all cases: binding
[1] = target: T1, kinases of the scanMAX Kinase assay panel (Homo sapiens, UniProt P54760); details: EPHB4; 1 uM
T1 construct: purchased DiscoverX Co. (contract measurement) scanMAX Kinase assay panel
T1 sequence (P54760 16-987): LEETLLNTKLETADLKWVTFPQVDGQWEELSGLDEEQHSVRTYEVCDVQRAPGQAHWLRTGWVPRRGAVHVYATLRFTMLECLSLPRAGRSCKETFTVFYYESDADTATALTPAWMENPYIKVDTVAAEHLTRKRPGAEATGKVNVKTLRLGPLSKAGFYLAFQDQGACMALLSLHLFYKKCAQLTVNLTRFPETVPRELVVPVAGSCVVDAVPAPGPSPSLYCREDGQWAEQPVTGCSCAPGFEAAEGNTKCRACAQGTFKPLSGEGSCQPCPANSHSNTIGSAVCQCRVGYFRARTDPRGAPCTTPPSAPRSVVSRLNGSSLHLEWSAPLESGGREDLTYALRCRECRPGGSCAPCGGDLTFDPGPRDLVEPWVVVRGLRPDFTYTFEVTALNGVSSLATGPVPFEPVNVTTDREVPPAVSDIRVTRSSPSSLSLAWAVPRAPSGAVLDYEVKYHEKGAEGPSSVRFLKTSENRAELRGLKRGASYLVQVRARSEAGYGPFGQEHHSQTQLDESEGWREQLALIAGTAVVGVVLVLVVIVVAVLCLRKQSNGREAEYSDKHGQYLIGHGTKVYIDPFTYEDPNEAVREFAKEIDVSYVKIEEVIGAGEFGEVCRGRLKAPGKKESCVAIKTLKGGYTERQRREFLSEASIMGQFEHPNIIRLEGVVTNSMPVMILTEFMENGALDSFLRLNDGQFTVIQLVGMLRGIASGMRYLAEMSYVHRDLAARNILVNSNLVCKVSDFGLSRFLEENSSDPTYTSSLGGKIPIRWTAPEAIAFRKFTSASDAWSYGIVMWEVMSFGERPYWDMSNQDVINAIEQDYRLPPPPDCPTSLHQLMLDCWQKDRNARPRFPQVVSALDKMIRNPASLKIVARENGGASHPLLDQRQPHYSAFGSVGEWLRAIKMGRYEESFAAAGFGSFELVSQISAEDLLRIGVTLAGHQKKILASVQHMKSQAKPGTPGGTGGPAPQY
How it was run: (§1)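 Compounds tested at 1 uM against the scanMAX kinase panel. Signal expressed as % control = (compound − positive control)/(DMSO negative control − positive control) × 100, where positive control = 0% and DMSO = 100%; below 35% counted as activity on that kinase.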

[2] = target: T2, kinases of the scanMAX Kinase assay panel (Homo sapiens, UniProt O95747); details: OSR1; 1 uM
T2 construct: purchased DiscoverX Co. (contract measurement) scanMAX Kinase assay panel
How it was run: as §1

[3] = target: T3, kinases of the scanMAX Kinase assay panel (Homo sapiens, UniProt P36888); details: 1 uM
T3 construct: purchased DiscoverX Co. (contract measurement) scanMAX Kinase assay panel
T3 sequence (P36888 27-993): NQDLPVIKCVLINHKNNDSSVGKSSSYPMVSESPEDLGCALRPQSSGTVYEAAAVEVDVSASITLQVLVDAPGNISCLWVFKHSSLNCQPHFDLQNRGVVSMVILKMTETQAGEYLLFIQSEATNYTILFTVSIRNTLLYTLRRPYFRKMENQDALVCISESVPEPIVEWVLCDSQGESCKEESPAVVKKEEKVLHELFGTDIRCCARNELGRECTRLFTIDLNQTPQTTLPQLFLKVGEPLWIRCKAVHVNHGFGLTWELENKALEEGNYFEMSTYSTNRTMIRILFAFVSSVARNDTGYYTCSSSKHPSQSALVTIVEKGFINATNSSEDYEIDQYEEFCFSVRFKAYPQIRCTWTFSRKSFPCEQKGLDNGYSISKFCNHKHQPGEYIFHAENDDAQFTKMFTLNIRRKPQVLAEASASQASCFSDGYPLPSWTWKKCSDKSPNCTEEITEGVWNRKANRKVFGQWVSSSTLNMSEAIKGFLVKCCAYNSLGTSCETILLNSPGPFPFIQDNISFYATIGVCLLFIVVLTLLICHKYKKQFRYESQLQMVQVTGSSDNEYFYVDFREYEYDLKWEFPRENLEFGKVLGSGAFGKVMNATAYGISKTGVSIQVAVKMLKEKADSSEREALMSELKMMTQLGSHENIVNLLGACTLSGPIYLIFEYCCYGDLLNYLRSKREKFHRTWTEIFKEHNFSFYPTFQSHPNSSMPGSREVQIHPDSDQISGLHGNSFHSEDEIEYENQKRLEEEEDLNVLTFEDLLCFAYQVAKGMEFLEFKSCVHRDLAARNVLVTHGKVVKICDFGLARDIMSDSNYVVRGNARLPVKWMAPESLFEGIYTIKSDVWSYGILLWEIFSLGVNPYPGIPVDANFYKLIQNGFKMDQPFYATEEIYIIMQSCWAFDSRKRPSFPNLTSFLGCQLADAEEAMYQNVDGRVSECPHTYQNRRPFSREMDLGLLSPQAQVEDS
How it was run: as §1

[4] = target: T4, kinases of the scanMAX Kinase assay panel (Homo sapiens, UniProt Q9H093); details: kinase SNARK; 1 uM in DMSO
T4 construct: purchased DiscoverX Co. (contract measurement) scanMAX Kinase assay panel
T4 sequence (Q9H093 1-628): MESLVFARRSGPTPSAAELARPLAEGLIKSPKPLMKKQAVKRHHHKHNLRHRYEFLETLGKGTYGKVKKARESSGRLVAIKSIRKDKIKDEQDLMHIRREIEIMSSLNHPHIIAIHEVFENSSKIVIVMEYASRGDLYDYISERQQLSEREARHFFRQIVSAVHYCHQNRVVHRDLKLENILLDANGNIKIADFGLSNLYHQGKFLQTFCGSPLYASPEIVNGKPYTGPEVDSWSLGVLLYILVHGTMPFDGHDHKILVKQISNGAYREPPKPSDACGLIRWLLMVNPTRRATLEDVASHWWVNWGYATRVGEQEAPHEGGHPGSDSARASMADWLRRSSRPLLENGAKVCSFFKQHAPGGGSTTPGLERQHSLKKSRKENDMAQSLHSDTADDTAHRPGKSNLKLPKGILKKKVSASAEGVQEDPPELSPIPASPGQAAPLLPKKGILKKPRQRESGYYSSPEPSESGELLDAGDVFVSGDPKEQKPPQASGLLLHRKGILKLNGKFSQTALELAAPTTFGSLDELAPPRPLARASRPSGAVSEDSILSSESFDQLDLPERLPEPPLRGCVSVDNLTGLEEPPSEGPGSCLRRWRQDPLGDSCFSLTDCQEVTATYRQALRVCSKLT
How it was run: as §1

T2 sequence (O95747 whole entry): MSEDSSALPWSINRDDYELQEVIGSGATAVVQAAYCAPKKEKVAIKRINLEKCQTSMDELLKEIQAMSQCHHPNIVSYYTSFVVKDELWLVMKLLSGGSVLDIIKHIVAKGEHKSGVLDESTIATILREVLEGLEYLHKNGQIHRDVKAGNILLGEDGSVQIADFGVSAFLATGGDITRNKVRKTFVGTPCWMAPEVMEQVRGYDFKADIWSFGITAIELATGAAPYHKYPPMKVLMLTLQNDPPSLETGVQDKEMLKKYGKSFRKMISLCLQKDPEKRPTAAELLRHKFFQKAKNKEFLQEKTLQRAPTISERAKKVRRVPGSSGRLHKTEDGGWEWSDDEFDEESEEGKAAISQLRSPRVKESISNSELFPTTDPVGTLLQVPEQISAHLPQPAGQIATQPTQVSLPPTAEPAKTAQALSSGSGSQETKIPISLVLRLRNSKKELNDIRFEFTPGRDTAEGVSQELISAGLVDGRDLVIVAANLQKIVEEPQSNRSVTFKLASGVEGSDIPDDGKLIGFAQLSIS

CCNc1nc(Nc2ccc(C(=O)N3CCC(N4CCOCC4)CC3)cc2OC)nc2[nH]cc(C(F)(F)F)c12 [Example 104, (4-((4-(ethylamino)-5-(trifluoromethyl)-7H-pyrrolo[2,3-d]pyrimidine-2-yl)amino)-3-methoxyphenyl)(4-morpholinopiperidine-1-yl)methanone]
remaining binding at 1 µM [1]: 100% | remaining binding at 1 µM [2]: 7.5% | remaining binding at 1 µM ([3]; FLT3-autoinhibited): 76% | remaining binding at 1 µM ([3]; FLT3): 65% | remaining binding at 1 µM [4]: 91%

CC1(Nc2nc(Nc3cnn([C@H]4CCN(C5COC5)C[C@@H]4F)c3Cl)nc3[nH]cc(C#N)c23)CC1 [Example 52, 2-((5-chloro-1-((3S,4S)-3-fluoro-1-(oxetane-3-yl)piperidine-4-yl)-1H-pyrazole-4-yl)amino)((1-methylcyclopropyl)amino)-7H-pyrrolo[2,3-d]pyrimidine-5-carbonitrile]
remaining binding at 1 µM [1]: 48% | remaining binding at 1 µM [2]: 0.45% | remaining binding at 1 µM ([3]; FLT3-autoinhibited): 0.3% | remaining binding at 1 µM ([3]; FLT3): 0.05% | remaining binding at 1 µM [4]: 0.95%

CNc1nc(Nc2ccc(C(=O)N3CCOCC3)cc2OC)nc2[nH]cc(C#N)c12 [Example 1, 2-((2-methoxy-4-(morpholine-4-carbonyl)phenyl)amino)-4-(methylamino)-7H-pyrrolo[2,3-d]pyrimidine-5-carbonitrile]
remaining binding at 1 µM [1]: 95% | remaining binding at 1 µM [2]: 21% | remaining binding at 1 µM ([3]; FLT3-autoinhibited): 45% | remaining binding at 1 µM ([3]; FLT3): 86% | remaining binding at 1 µM [4]: 77%

Reference: US11208412B2 (DAEGU-GYEONGBUK MEDICAL INNOVATION FOUNDATION, priority 2017, dated 2021)
